Measured values reported in article PMC6838683, “Discovery of Human Signaling Systems: Pairing Peptides to G Protein-Coupled Receptors” (Cell, 2019).
Like-named read-outs stand apart in the source and are kept apart here. Residues, ends and D or L forms follow the SMILES beside them.

Columns and labels:
[1] = biological target: T1, GPR15 (Homo sapiens, UniProt P49685); experiment: cAMP inhibition (Gi/o), HTRF with forskolin; type: cell-based; conditions: mean
T1 construct: hIL-2Ra signal peptide (N); expressed in transfected cells
T1 sequence (P49685 2-360 limits assumed): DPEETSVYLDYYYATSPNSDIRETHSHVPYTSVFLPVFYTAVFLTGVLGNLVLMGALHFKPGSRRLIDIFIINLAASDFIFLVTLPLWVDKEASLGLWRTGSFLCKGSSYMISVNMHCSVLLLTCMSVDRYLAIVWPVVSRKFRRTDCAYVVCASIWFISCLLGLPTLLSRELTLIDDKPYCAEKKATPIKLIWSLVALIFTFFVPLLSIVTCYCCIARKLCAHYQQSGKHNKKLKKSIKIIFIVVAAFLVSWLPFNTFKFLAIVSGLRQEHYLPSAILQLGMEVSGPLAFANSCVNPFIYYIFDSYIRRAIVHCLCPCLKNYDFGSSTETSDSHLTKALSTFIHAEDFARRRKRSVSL
Description: Peptide-dependent second messenger responses were measured using commercially available HTRF-based IP1 and cAMP kits (Cisbio) as described previously ([Nørskov-Lauritsen et al., 2014]). Receptor expression was induced for 48 hr with 0.1 μg/ml doxycycline in 10 cm dishes. For IP1 measurements (to measure Gq/11), 2,500 cells/well were mixed with ligands in triplicate wells in low volume white 384-well plates at 37°C for 30 min. For cAMP assays, 2,500 cells/well were added in triplicate wells in white 384-well plates in the absence or presence of 3 μM forskolin (to measure Gs and Gi/o activation respectively). 100 μM IBMX was included to prevent cAMP degradation during 30 min stimulation on a plate shaker at room temperature. For both assays, HTRF was measured using an EnVision 2104 Multimode plate reader (PerkinElmer).

[2] = biological target: T2, GPR68 (Homo sapiens, UniProt Q15743); experiment: GloSensor cAMP assay (Gs), allosteric operational model fitting; type: cell-based; design: expressed in transfected cells; host or cells: HEK293T, transient (PEI), co-transfected with GloSensor cAMP plasmid; conditions: for Log(ab/KB): allosteric operational model parameter, GPR68 GloSensor cAMP
Description: GPR68-mediated cAMP signaling was measured using GloSensor cAMP assays as published previously ([Huang et al., 2015], [Yu et al., 2019]) with modifications as indicated below. Calcium- and magnesium-free HBSS was supplemented with different organic buffer reagents for different pH solutions, 20 mM 2-(N-morpholino)ethanesulfonic acid (MES, Alfa Aesar) for pH 6.00 – 6.70, 20 mM 4-(2-hydroxyethyl)-1-piperazineethanesulfonic acid (HEPES, Fisher) for pH 6.80 – 8.20, and 20 mM (tris(hydroxymethyl)methylamino)propanesulfonic acid (TAPS) for pH 8.30 – 8.60. The phosphodiesterase (PDE) inhibitor Ro 20-1724 (10 μM final, Cayman Chemical) was included in pH buffers to eliminate potential effect of PDE […]. HEK293T cells were transfected with a modified polyethylenimine (PEI, Polysciences) transfection method ([Longo et al., 2013]). For a 15-cm dish of HEK293T cells with 25 mL growth medium, 8 μg receptor DNA and 8 μg GloSensor DNA (Promega) were mixed in 1 mL of Opti-MEM medium followed by addition of 80 μL PEI reagents. The mixture was added to cells after 20 min incubation at room temperature. Overnight transfected cells were plated in poly-L-lysine (Sigma) coated 384-well white clear bottom plates (Greiner Bio-One, #781098) using DMEM (Corning) + 1% dialyzed FBS (Omega Scientific) for at least 6 h (up to 24 h). Cells were removed of medium before receiving 20 μL/well of 3.5 mM luciferin (Goldbio) prepared in assay buffer (HBSS, 20 mM TAPS, pH 8.40, 10 μM Ro 20-1724) for 1 h at 37°C. Luciferin loading solutions were removed and premixed drug solutions at desired pH conditions were added to cells (25 μL/well). Luminescence was measured 25-30 min after drug application. Results were normalized (basal and maximum responses in the absence of modulator were set to be 0 and 100%) and pooled for analysis using GraphPad Prism.
All of the other parameters, including allosteric affinity cooperativity (α), allosteric modulator binding affinity KB, orthosteric agonist (protons) efficacy τA, system maximal response, and slope factor n were all globally shared for all datasets for each modulator. […] We therefore used an allosteric index, log(αβ/KB) ([Kenakin, 2017a]), which contains both allosteric binding affinity and cooperativity, to quantify the overall allosteric activity.
Target sequence in this assay (Q15743 whole entry): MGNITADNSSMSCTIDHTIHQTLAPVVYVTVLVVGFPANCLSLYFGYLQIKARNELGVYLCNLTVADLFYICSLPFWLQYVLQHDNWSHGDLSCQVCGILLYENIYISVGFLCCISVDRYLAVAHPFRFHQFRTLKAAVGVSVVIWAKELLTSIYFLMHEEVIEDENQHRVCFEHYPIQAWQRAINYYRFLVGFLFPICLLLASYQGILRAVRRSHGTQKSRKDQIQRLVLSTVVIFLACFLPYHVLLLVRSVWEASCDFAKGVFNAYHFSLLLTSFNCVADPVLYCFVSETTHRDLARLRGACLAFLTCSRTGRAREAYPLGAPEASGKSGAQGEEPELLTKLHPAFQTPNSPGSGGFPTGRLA

[3] = biological target: T3, MRGPRX2 (Homo sapiens, UniProt Q96LB1); experiment: β-arrestin recruitment (Tango), known peptide receptors; type: cell-based; conditions: mean, n = 3
T3 construct: host or cells: HTLA cells (HEK293-derived)
T3 sequence (Q96LB1 1-330): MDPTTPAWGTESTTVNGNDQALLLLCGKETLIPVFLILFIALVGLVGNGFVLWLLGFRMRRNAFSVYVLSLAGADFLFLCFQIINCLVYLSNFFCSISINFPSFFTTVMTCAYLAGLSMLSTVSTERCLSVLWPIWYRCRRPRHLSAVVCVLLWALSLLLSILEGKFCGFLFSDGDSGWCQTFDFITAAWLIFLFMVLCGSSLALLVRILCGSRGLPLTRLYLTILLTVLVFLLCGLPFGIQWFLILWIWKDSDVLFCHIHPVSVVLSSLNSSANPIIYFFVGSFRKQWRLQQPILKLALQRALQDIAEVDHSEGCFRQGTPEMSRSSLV

[4] = biological target: T4, NPY5 (Homo sapiens, UniProt Q15761); experiment: as above; type: cell-based; conditions: NPY5R, n = 3; for Comment, Tango (fold over basal): Emax and pEC50 n.d.
T4 construct: host or cells: HTLA cells (HEK293-derived)
T4 sequence (Q15761 1-445): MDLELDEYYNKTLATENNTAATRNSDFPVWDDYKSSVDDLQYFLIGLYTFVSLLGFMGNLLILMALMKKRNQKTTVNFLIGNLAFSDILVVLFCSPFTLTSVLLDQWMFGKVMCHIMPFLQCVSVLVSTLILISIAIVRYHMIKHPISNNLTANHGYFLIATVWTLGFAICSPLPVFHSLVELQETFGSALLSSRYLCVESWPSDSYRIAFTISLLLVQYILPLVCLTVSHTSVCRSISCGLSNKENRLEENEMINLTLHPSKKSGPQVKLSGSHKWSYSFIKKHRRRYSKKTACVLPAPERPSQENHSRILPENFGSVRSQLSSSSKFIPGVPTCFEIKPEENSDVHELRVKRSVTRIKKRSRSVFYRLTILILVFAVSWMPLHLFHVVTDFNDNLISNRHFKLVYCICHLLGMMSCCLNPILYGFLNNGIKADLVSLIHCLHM
Description: (§1) The peptide library was additionally screened against 120 GPCR targets in parallel, including all available orphan receptors and 27 known class A peptide receptors using the Tango assay platform ([Kroeze et al., 2015]). Briefly, HTLA cells (a HEK293 cell line stably expressing a tTA-dependent luciferase reporter and a β-arrestin2-TEV fusion gene) were plated 10,000 cells/well in poly-L-lysine–coated clear-bottom white 384-well plates in DMEM supplemented with 10% FBS, 100 U/ml penicillin and 100 μg/ml streptomycin, 2 μg/ml puromycin and 100 μg/ml hygromycin B. 24 hr later, cells were transfected with Tango GPCR constructs using the calcium phosphate method ([Jordan et al., 1996]). The next day, culture medium was changed to DMEM + 1% dFBS and 10 μM peptides were added for overnight stimulation. Bright-Glo solution (Promega) was incubated for 15–20 min at room temperature, and luminescence was counted using a Trilux luminescence counter (Wallac).
For subsequent peptide validation experiments using Tango assays, HTLA cells were transiently transfected in 10 cm dishes with the receptor of interest using polyethylenimine (PEI) ([Longo et al., 2013]). After 24 hr, 25,000 cells/well were plated in clear bottom, white-walled 384-well plates. Assays were performed as described above, with luminescence measured using an EnSpire 2300 Multimode plate reader (PerkinElmer). Luminescence counts were exported into Excel and were analyzed using GraphPad Prism 7.

[5] = test system: 120 GPCR targets, including all available orphan receptors and 27 known class A peptide receptors; experiment: Peptide library screen, β-arrestin recruitment (Tango, fold change, 10 μM); type: cell-based, human; conditions: Tango; receptor(s) at which the known library peptide was active, among its known GPCR target(s); validated pairings
Description: as §1

[6] = biological target: T2, GPR68; experiment: Real-time receptor internalization (TR-FRET), concentration-response; type: cell-based; design: hIL-2Ra signal peptide (N); expressed in transfected cells; conditions: GPR68; real-time internalization; mean, SEM and n (3)
Description: 48 hr prior to parallel assaying, SNAP-tagged oGPCR cells were plated (10,000 cells/well) in fibronectin-coated 384-well Epic biosensor microplates (Corning) and poly-D-lysine coated white 384-well plates (for internalization assays). SNAP- GLP-1 receptor was plated alongside orphan receptor cells as an internal assay control for internalization assays. Receptor-expression was induced with 0.1 μg/ml doxycycline.
A TR-FRET real-time internalization assay was used to examine peptide-dependent changes in orphan receptor localization as described previously ([Foster and Bräuner-Osborne, 2018]). Surface-expressed SNAP-tagged receptors were labeled with a cell-impermeable luminescent terbium cryptate (100 nM SNAP Lumi4-Tb; Cisbio, France) for 1 hr at 37°C. Cells were washed to remove excess terbium and incubated with fluorescein-O-acetic acid (100 μM; Sigma Aldrich) for 5 min at 37°C. Peptides were added as for DMR assays, and internalization responses were recorded for 60 min at 37°C using an EnVision 2104 Multimode plate reader (PerkinElmer). 100 nM GLP-1 was used as a positive control for SNAP-GLP1R internalization. Real-time internalization responses were calculated based on TR-FRET (excitation 340 nm; emission 520 nm and 615 nm), and were expressed as the ratio between donor (terbium) and acceptor (fluorescein) emission. For peptide screening analysis (both DMR and internalization assays), we calculated the area under the curve from the real-time traces. As the magnitude of the responses was variable between orphan receptor targets, particularly for the SNAP-tag based internalization assay where the signal is dependent on receptor surface expression, the AUC values were normalized to their respective plate averages and expressed as fold change. Validation experiments for receptor internalization were performed as above. Internalization data was processed in MS-Excel and area under the curve was used to generate concentration-response curves using GraphPad Prism 7.0. Data represent mean ± standard error of the mean (SEM) from at least 3 biologically independent experiments.
Target sequence in this assay (Q15743 2-365 limits assumed): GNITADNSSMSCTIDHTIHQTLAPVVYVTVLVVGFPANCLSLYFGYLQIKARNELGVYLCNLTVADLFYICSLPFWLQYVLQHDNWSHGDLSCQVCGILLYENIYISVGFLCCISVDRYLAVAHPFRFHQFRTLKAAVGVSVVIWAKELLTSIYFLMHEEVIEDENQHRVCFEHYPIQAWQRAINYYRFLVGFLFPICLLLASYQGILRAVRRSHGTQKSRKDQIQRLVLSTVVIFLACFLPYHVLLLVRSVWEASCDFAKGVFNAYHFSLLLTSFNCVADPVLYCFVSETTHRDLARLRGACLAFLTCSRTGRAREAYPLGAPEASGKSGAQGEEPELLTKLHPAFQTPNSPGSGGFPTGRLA

`CC(C)C[C@H](NC(=O)[C@H](C)NC(=O)CNC(=O)[C@@H]1CCCN1C(=O)[C@@H](NC(=O)[C@@H](NC(=O)[C@H](Cc1c[nH]c2ccccc12)NC(=O)[C@@H](N)CC(C)C)C(C)C)C(C)C)C(=O)N1CCC[C@H]1C(=O)N[C@@H](CCC(N)=O)C(=O)N[C@H](C(=O)O)C(C)C` [64 resynthesized] (H-LWVVPGALPQV-OH) was tested. Which Emax ([1]; receptor GPR15, SEM and n (4), read-out: cAMP accumulation assays Emax (% FSK)) did it give?
The Emax was 30.8%.

Which Emax ([1]; GPR15, SEM and n, read-out: Emax, cAMP (% FSK)) does the source give for `CC(C)C[C@H](NC(=O)[C@H](C)NC(=O)CNC(=O)[C@@H]1CCCN1C(=O)[C@@H](NC(=O)[C@@H](NC(=O)[C@H](Cc1c[nH]c2ccccc12)NC(=O)[C@@H](N)CC(C)C)C(C)C)C(C)C)C(=O)N1CCC[C@H]1C(=O)N[C@@H](CCC(N)=O)C(=O)N[C@H](C(=O)O)C(C)C` [GPR15L_(47-57)] (H-LWVVPGALPQV-OH) here?
The Emax was 29.2%.

With `Nc1nc(NCc2ccccc2)nc(-c2ccccc2CO)n1` [Ogerin] as the compound, how does the “Log(ab/KB)” value ([2]; replicate 1) read?
Its value is 5.25.

And the “Log(ab/KB)” value ([2]; replicate 2)?
The value was 5.23.

What about the “Log(ab/KB)” value ([2]; replicate 3) of the same compound?
Its value is 5.25.

How did the “Log(ab/KB)” value ([2]; replicate 1) turn out when `CC[C@H](C)[C@H](NC(=O)[C@H](CCCNC(=N)N)NC(=O)[C@H](C)NC(=O)CNC(=O)[C@H](CCCCN)NC(=O)[C@H](CCCNC(=N)N)NC(=O)[C@@H](NC(=O)[C@H](C)NC(=O)[C@H](CS)NC(=O)[C@H](CCC(N)=O)NC(=O)[C@H](CCC(=O)O)NC(=O)CNC(=O)[C@H](C)NC(=O)[C@H](CC(=O)O)NC(=O)[C@H](CS)NC(=O)[C@H](CCSC)NC(=O)[C@@H]1CCCN1C(=O)[C@@H](NC(=O)[C@H](CCC(N)=O)NC(=O)CNC(=O)[C@@H](N)Cc1ccc(O)cc1)C(C)C)C(C)C)C(=O)O` [Pepetide 139] (H-YGQVPMCDAGEQCAVRKGARI-OH; N-terminus assumed) was run?
The value was 5.24.

And the “Log(ab/KB)” value ([2]; replicate 2)?
Its value is 5.36.

What about the “Log(ab/KB)” value ([2]; replicate 3) of the same compound?
The value was 5.40.

What about the “Log(ab/KB)” value ([2]; replicate 4) of the same compound?
Its value is 5.40.

What about the Fold difference ([2]; fold difference of ab/KB relative to Ogerin) of the same compound?
The Fold difference was 1.28.

With “ATVRNEDKWKPLNNPRNRDLFFRRLQAYFK [Peptide 175]” as the compound, how does the “Emax, Tango (fold over basal)” value [3] read?
The value was 3.5 fold over basal.

What about the “pEC50, Tango (fold over basal)” value [3] of the same compound?
Its value is 4.67.

How did the “Emax, Tango (fold over basal)” value [3] turn out when FLWKDLQRVR [Peptide 56] was run?
Its value is 4.9 fold over basal.

And the “pEC50, Tango (fold over basal)” value [3]?
The value was 4.90.

For IQAQLKELRY [Peptide 49], which “Comment, Tango (fold over basal)” value [4] is on record?
The value was “Response >1uM”.

What does the source list for MPHSFANLPLRF [Peptide 86]?
Emax, Tango (fold over basal) ([4]; mean): 10.4 fold over basal; pEC50, Tango (fold over basal) ([4]; mean): 5.44; Active at: (activity in b-arrestin recruitment assays) [5]: NPFF1

QMAVKKYLAAVL [Peptide 84] was tested. Which “Emax, Tango (fold over basal)” value [3] did it give?
Its value is 7.0 fold over basal.

And the “pEC50, Tango (fold over basal)” value [3]?
The value was 5.02.

For RFGIPMDRIGRNRLSNSR [Peptide 128.1], which “Internalization assays Emax (AUC)” value [6] is on record?
The value was 2.0.

What does the source list for SQAFLFQPQRF [Peptide 75]?
Comment, Tango (fold over basal) [4]: Response >1uM; Active at: (activity in b-arrestin recruitment assays) [5]: NPFF1

With VPNLPGRF [Peptide 36] as the compound, how does the “Comment, Tango (fold over basal)” value [4] read?
Its value is “Response >1uM”.

Which results are given for WYKHVASPRYHTVGRAAGLLMGL [Peptide 151]?
Active at: (activity in b-arrestin recruitment assays) [5]: NPBW1, NPBW2; Emax, Tango (fold over basal) [3]: 3.4 fold over basal; pEC50, Tango (fold over basal) [3]: 4.73
